Columns and labels:
Cytochrome P450 2C9 = Cytochrome P450 2C9 (Homo sapiens, UniProt P11712); assay: Inhibition of CYP2C9 in human liver microsomes using diclofenac as substrate preincubated for 20 mins with substrate prior to initiation of reaction with NADPH by HPLC analysis; type: ADME
Cytochrome P450 2C19 = Cytochrome P450 2C19 (Homo sapiens, UniProt P33261); assay: Inhibition of CYP2C19 in human liver microsomes using S-mephenytoin as substrate preincubated for 20 mins with substrate prior to initiation of reaction with NADPH by HPLC analysis; type: ADME
CYP2C19 = CYP2C19 (Homo sapiens, UniProt P33261); assay: Inhibition of CYP2C19 in human liver microsomes using S-mephenytoin as substrate at 100 uM preincubated for 20 mins with substrate prior to initiation of reaction with NADPH by HPLC analysis; type: ADME; details: probe S-mephenytoin
CYP2D6 = CYP2D6 (Homo sapiens, UniProt P10635); assay: Inhibition of CYP2D6 in human liver microsomes using bufuralol as substrate at 100 uM preincubated for 20 mins with substrate prior to initiation of reaction with NADPH by HPLC analysis; type: ADME; details: probe bufuralol
CYP3A4 = CYP3A4 (Homo sapiens, UniProt P08684); assay: Inhibition of CYP3A4 in human liver microsomes using nifedipine as substrate at 100 uM preincubated for 20 mins with substrate prior to initiation of reaction with NADPH by HPLC analysis; type: ADME; details: probe nifedipine
[1] = molecular target: Solute carrier family 22 member 1 (Homo sapiens, UniProt O15245); assay: Inhibition of human OCT1 expressed in HEK293 cells using [14C]metformin as substrate at 10 uM after 10 mins by liquid scintillation counting analysis; type: ADME, cell-based; details: hek293, 10 min
BCRP (ABCG2) = molecular target: T1, BCRP (ABCG2) (Homo sapiens, UniProt Q9UNQ0); assay: Activity at human BCRP expressed in MDCK2 cells assessed as basolateral to apical mass balance at 3 uM by liquid scintillation counting analysis; type: ADME, cell-based, MDCK-II; details: read-out: Activity
T1 sequence (Q9UNQ0 whole entry): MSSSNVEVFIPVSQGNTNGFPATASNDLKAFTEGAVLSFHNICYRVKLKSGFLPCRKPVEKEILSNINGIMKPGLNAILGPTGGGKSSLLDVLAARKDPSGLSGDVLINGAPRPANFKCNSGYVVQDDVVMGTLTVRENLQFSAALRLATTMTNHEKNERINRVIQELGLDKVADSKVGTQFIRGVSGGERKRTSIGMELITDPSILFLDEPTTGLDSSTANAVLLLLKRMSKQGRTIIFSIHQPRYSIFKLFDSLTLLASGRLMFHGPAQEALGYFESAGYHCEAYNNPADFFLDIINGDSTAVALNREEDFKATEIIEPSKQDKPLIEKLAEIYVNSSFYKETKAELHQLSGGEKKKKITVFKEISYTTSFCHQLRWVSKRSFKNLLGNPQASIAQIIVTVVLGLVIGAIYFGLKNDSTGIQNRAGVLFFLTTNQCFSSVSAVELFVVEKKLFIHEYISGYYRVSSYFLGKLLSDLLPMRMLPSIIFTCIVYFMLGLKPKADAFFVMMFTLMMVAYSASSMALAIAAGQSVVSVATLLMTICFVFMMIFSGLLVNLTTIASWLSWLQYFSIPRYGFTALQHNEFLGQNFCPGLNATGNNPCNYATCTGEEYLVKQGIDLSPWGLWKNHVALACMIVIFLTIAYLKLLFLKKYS

[2] = molecular target: ATP-dependent translocase ABCB1 (Homo sapiens, UniProt P08183); assay: Inhibition of MDR1 (unknown origin) expressed in MDCK2 cells assessed as basolateral to apical transport of [3H]digoxin at 100 uM after 90 mins by liquid scintillation counting analysis; type: ADME, cell-based; details: mdck-ii, 1.5 h
[3] = molecular target: T2, Broad substrate specificity ATP-binding cassette transporter ABCG2 (Homo sapiens, UniProt Q9UNQ0); assay: Inhibition of BCRP (unknown origin) expressed in MDCK2 cells assessed as basolateral to apical transport of [14C]cimetidine at 30 uM after 90 mins by liquid scintillation counting analysis; type: ADME, cell-based; details: mdck-ii, 1.5 h
T2 sequence (Q9UNQ0 whole entry): T1 sequence (Q9UNQ0 whole entry)

[4] = molecular target: T2, Broad substrate specificity ATP-binding cassette transporter ABCG2; assay: Inhibition of BCRP (unknown origin) expressed in MDCK2 cells assessed as basolateral to apical transport of [14C]cimetidine at 100 uM after 90 mins by liquid scintillation counting analysis; type: ADME, cell-based; details: mdck-ii, 1.5 h
Cytochrome P450 3A4 = Cytochrome P450 3A4 (Homo sapiens, UniProt P08684); assay: Drug metabolism in supersomes expressing human recombinant CYP3A4 assessed as NADPH-fortified enzyme-mediated metabolite M3 ((4R,12aS)-N-((3,5-difluorophenyl)(hydroxy)methyl)-7-hydroxy-4-methyl-6,8-dioxo-3,4,6,8,12,12a-hexahydro-2H-[1,3]oxazino[3,2-d]pyrido[1,2-a]pyrazine-9-carboxamide) formation at 5 uM after 120 mins by radio-HPLC analysis in presence of selective CYP3A4 inhibitor azamulin; type: ADME
Liver microsome [5] = assay: Drug metabolism in NADPH-fortified human liver microsomes assessed as metabolite M3 ((4R,12aS)-N-((3,5-difluorophenyl)(hydroxy)methyl)-7-hydroxy-4-methyl-6,8-dioxo-3,4,6,8,12,12a-hexahydro-2H-[1,3]oxazino[3,2-d]pyrido[1,2-a]pyrazine-9-carboxamide) formation at 5 uM after 120 mins by radio-HPLC analysis; type: ADME
Cytochrome P450 2C8 = molecular target: T3, Cytochrome P450 2C8 (Homo sapiens, UniProt P10632); assay: Drug metabolism in supersomes expressing human recombinant CYP2C8 assessed as NADPH-fortified enzyme-mediated metabolite formation at 5 uM after 120 mins by radio HPLC analysis; type: ADME; details: 2 h
T3 sequence (P10632 whole entry): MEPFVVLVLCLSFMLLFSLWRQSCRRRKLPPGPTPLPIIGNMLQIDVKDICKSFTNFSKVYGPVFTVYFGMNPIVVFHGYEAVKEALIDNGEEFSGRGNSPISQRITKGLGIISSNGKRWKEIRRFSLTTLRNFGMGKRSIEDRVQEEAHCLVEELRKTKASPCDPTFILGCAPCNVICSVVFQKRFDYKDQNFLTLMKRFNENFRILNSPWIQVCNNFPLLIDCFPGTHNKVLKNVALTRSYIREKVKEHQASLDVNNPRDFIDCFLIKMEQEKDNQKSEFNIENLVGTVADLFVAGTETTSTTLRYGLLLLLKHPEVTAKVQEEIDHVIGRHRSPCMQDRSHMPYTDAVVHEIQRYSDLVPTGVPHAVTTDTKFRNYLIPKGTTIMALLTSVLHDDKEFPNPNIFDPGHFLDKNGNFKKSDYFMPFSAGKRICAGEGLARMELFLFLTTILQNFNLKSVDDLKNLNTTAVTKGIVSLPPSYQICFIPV

Liver microsome [6] = assay: (§1) Drug metabolism in UDPGA-fortified human liver microsomes assessed as DTG glucuronide metabolite ((2S,3S,4S,5R,6S)-6-((4R,12aS)-9-(2,4-difluorobenzylcarbamoyl)-4-methyl-6,8-dioxo-3,4,6,8,12,12a-hexahydro-2H-[1,3]oxazino[3,2-d]pyrido[1,2-a]pyrazin-7-yloxy)-3,4,5-trihydroxytetrahydro-2H-pyran-2-carboxylic acid) formation at 16 uM treated for 4 hrs by radio-HPLC analysis; type: ADME
[7] = molecular target: UDP-glucuronosyltransferase 2B7 (Homo sapiens, UniProt P16662); assay: as §1, with “metabolism assessed as” for “metabolism in”, “human recombinant UGT2B7-mediated” for “human liver microsomes assessed as”, “formation after 120 mins” for “formation at 16 uM treated for 4 hrs”; type: ADME; details: recombinant enzyme
Chain of UDP-glucuronosyltransferase 2B7 (P16662 whole entry): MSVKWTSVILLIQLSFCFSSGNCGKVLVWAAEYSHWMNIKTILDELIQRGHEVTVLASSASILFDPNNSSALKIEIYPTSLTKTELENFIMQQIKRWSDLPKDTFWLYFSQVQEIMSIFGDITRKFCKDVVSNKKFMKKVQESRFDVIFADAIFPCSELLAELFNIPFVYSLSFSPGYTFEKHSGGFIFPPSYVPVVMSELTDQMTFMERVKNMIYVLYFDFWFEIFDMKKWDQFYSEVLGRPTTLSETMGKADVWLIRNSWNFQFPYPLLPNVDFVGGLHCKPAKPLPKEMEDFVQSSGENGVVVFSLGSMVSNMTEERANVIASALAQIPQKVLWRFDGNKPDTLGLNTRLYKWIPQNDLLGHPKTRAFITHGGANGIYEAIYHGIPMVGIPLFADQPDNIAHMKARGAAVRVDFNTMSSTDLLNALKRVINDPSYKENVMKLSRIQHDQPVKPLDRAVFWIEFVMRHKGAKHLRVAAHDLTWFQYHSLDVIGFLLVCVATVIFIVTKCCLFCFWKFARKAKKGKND

Chain of CYP2C19 (P33261 whole entry): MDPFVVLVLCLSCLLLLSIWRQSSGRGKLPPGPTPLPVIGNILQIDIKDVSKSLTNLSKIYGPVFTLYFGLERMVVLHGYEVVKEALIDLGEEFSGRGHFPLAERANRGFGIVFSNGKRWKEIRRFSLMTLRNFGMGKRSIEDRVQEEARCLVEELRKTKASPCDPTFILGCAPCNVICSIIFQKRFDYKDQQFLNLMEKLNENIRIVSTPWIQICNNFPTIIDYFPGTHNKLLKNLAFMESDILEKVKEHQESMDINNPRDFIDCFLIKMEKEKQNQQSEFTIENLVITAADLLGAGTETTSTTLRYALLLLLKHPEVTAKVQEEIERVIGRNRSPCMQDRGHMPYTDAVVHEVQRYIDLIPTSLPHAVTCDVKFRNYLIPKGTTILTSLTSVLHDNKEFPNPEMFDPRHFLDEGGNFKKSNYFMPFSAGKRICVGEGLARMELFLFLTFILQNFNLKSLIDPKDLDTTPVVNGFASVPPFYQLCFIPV
Chain of Cytochrome P450 2C19 (P33261 whole entry): as above
Chain of ATP-dependent translocase ABCB1 (P08183 whole entry): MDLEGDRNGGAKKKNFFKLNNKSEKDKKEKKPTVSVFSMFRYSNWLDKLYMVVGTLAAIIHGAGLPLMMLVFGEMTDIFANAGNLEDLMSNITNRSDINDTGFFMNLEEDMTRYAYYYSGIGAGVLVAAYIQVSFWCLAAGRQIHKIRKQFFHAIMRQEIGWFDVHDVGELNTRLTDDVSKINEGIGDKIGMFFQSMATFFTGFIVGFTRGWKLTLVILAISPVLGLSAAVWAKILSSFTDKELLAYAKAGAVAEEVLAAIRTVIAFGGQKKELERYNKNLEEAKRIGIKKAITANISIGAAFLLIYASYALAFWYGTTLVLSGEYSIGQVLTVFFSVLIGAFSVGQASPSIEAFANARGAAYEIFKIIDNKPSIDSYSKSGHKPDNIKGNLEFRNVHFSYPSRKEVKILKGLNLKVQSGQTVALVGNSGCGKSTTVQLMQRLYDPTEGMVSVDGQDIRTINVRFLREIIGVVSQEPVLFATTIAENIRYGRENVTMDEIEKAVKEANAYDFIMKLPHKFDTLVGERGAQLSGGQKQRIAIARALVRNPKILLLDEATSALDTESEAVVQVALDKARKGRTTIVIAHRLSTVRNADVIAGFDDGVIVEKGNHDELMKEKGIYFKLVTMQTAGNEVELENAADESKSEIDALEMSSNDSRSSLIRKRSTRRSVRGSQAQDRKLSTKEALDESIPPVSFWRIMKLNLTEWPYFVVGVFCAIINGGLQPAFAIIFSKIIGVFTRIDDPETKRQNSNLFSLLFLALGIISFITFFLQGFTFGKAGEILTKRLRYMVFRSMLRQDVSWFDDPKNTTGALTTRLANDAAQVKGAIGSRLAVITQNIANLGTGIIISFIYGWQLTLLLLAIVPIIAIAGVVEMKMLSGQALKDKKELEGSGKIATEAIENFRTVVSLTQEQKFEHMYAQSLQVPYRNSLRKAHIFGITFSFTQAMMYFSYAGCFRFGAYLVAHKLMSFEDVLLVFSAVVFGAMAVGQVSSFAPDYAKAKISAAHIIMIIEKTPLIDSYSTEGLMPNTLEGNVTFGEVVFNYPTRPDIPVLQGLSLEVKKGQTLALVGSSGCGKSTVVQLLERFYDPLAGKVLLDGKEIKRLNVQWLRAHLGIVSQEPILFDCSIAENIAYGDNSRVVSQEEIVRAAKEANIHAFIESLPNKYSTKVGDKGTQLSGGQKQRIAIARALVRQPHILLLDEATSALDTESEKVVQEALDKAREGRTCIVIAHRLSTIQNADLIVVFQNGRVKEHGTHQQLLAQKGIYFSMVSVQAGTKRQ
Chain of CYP2D6 (P10635 whole entry): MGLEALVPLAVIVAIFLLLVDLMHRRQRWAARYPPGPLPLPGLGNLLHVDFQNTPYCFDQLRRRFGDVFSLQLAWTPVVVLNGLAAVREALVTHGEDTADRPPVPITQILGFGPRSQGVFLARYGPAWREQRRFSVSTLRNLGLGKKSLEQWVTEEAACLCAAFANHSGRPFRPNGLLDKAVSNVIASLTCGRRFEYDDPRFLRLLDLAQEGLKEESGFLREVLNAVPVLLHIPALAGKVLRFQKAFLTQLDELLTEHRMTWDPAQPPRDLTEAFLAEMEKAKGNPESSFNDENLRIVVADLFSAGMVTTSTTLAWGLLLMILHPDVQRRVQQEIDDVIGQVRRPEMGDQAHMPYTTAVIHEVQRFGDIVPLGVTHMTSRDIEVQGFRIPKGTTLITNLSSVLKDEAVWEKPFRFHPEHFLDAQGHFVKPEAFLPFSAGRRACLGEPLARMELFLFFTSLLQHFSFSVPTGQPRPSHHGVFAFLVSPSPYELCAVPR
Chain of Cytochrome P450 2C9 (P11712 whole entry): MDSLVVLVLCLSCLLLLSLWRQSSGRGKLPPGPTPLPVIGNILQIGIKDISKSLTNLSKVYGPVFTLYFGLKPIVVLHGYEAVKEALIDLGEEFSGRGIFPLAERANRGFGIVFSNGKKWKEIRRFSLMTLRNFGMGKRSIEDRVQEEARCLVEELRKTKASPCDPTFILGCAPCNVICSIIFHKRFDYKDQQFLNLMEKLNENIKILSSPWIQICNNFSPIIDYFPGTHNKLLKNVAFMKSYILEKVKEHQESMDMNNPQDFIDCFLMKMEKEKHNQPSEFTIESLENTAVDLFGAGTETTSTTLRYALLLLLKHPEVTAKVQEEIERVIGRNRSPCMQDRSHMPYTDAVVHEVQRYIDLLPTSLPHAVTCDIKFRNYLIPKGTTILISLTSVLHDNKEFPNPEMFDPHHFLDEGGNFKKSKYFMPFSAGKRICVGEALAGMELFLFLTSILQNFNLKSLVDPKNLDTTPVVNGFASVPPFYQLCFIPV
Chain of Solute carrier family 22 member 1 (O15245 whole entry): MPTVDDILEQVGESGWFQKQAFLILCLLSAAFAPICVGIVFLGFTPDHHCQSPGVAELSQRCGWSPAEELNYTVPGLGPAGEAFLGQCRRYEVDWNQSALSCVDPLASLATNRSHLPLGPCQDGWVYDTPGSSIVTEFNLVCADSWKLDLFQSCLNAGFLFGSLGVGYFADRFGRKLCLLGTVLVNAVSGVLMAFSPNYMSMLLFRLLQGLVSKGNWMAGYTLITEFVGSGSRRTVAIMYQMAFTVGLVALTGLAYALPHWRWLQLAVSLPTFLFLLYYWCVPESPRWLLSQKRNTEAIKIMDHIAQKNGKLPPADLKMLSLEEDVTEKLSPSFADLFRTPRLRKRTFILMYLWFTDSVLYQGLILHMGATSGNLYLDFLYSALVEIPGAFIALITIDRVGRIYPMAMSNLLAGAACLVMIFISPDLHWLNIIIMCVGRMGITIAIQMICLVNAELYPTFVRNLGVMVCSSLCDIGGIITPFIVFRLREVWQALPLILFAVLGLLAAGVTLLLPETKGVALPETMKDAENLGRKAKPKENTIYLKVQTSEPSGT
Chain of Cytochrome P450 3A4 (P08684 whole entry): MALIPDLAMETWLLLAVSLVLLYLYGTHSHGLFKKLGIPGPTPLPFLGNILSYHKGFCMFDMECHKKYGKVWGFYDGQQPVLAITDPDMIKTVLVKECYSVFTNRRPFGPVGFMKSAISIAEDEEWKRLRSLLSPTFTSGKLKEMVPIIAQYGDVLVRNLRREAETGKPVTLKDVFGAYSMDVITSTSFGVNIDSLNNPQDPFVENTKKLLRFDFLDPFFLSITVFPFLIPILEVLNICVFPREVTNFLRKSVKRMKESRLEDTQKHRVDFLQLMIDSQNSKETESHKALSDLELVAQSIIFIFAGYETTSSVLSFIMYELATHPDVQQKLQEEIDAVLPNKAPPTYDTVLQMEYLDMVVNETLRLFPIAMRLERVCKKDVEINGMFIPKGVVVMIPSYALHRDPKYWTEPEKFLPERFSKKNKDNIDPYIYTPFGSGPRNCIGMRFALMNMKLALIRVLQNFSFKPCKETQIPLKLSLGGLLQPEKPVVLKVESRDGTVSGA
Chain of CYP3A4 (P08684 whole entry): as above

How did the IC50 (Cytochrome P450 2C9) turn out when `C[C@@H]1CCO[C@H]2Cn3cc(C(=O)NCc4ccc(F)cc4F)c(=O)c(O)c3C(=O)N12` [DOLUTEGRAVIR] was run?
The IC50 was over 100 µM.

What about the IC50 (Cytochrome P450 2C19) of the same compound?
Its IC50 is over 100 µM.

What about the inhibition at 100 µM (CYP2C19) of the same compound?
Its inhibition at 100 µM is 20%.

And the inhibition at 100 µM (CYP2D6)?
The inhibition at 100 µM was 20%.

What about the inhibition at 100 µM (CYP3A4) of the same compound?
Its inhibition at 100 µM is 20%.

And the “inhibition (INH)” value [1]?
The value was 22%.

And the recovery at 3 µM (BCRP (ABCG2))?
The recovery at 3 µM was 85%.

What about the “inhibition (INH)” value [2] of the same compound?
Its value is 29%.

What about the “inhibition (INH)” value [3] of the same compound?
Its value is 43%.

What about the “inhibition (INH)” value [4] of the same compound?
Its value is 50%.

And the Drug metabolism (Cytochrome P450 3A4)?
The Drug metabolism was “metabolite_not_detected”.

What about the Drug metabolism (Liver microsome [5]) of the same compound?
The Drug metabolism was “metabolite_detected”.

What about the Drug metabolism (Cytochrome P450 2C8) of the same compound?
Its Drug metabolism is “metabolite_not_detected”.

And the Drug metabolism (Liver microsome [6])?
Its Drug metabolism is “metabolite_detected”.

And the Drug metabolism [7]?
The Drug metabolism was “metabolite_not_detected”.

From ChEMBL document CHEMBL3526034 (Drug Metab Dispos, 2013)
